Measurements taken from PMC10119930, “Dual Molecules Targeting 5-HT6 and GABA-A Receptors as a New Approach to Combat Depression Associated with Neuroinflammation” (ACS Chemical Neuroscience, 2023).
Several values for one entry are separate records, joined by “and”; a condition that tells them apart may be missing. Equal values may be shown once.

What was measured:
[1] = test system: human α1β2γ2-GABA-A receptors; test: Electrophysiological studies, automated patch clamp (QPatch16X), HEK293 cells; assay type: cell-based; details: agonist mode, compound at 10 μM; current amplitude normalized to 10 μM GABA response; ±S.E.M.
Procedure: Electrophysiological studies were acquired using the QPatch16X automatic patch clamp platform (Sophion Biosciences) as described before.[42],[43] […] Before the assay, cells were detached from the culture flask by treating them with TrypLE Express solution (Life Technologies) and subsequently suspended in serum-free media. The cells were loaded into a 1.5 mL microtube on the automated electrophysiology instrument, which subsequently performed a spin-down using its built-in centrifuge. Following this, the cells were washed with Ringer’s extracellular solution. The cells were moved to the pipetting wells of a 16-channel planar patch chip plate (QPlate 16X) designed for single-use. A combined suction/voltage protocol was then applied to establish gigaseals. […] During the entire whole-cell recording, the holding potential was maintained at −90 mV. […] The intracellular solution contained 140 mM CsF, 1 mM EGTA, 5 mM CsOH, 10 mM HEPES, 20 mMNaCl (pH 7.2, 320 mOsm). […] The acquired data were examined with QPatch assay software (v5.0, Sophion Biosciences)[44] and are represented as the mean of three separated measurements performed on distinct cells. The efficacy of the tested molecules was determined by calculating the baseline-corrected ratio of the maximum current amplitudes elicited by the tested compounds and the reference agonist (T1-ATG/AG1-ATG or T2-ATG/AG1-ATG). The raw current recordings were standardized and presented as a percentage of the current amplitude evoked by the reference agonist, using the QPatch assay software (v5.0, Sophion Biosciences).

[2] = Metabolic stability in rat liver microsomes; assay type: in vitro ADME; details: assayed at 10^–7 M
Procedure: The assay was performed by Eurofins Discovery, a contract research organization, according to standard methodology, described previously.[46]

[3] = Hepatotoxicity assay, HepG2 cell viability (PrestoBlue, ToxiLight); assay type: cell-based, human; details: human, HepG2 cells, 24 h, read-out: viability of cells, MEAN (percentage of control, live cells)
Procedure: (§1) Hepatotoxiticy assay was conducted according to our previously described procedures.[42]Cell culture and treatment: The human hepatocellular carcinoma (HepG2) cell line was acquired from ATCC, Manassas, USA (HB-8065), and maintained according to the manufacturer’s ATCC protocol. Cell culture conditions included a medium consisting of Dulbecco’s modified Eagle’s medium (DMEM, Merck), 10% fetal bovine serum, […], 100 IU/mL penicillin (acquired from ThermoFisher), humidified atmosphere containing 5% of carbon dioxide, temperature of 37 °C. The stock solution of the tested compound was prepared in DMSO (10 mM) and next diluted with buffered phosphate saline (PBS, Merck). Cell membrane damage was examined with the use of a ToxiLight bioassay (Lonza), rendering the manufacturer’s protocol described previously.[42] A culture medium containing 10% Triton X-100 (Merck) was used as the positive control of cell damage, while the negative control contained solely vehicle. After incubating for 5 min, the luminescence was examined with the plate reader POLARstar Omega (BMG Labtech). The results were expressed as a percentage of the positive control, which was defined as the percentage of dead cells relative to the control sample. Cell viability assay: The viability of cells was examined with the use of the PrestoBlue reagent (ThermoFisher) and protocol provided by the manufacturer. After incubating for 24 h with the examined compounds, one-tenth of the remaining medium volume was mixed with the reagent (PrestoBlue) in a microplate well. Following incubation at 37 °C during 15 min, the fluorescence (EX 530; EM 580 nm) was measured using the plate reader POLARstar Omega, (BMG Labtech). The viability values obtained are presented as a percentage of live cells relative to the DMSO (control sample). The GraphPad program was used to perform the statistical analysis. The mean values with their corresponding coefficient of variation (CV) were reported for all data. The differences between the groups were analyzed using one-way analysis of variance (ANOVA) followed by Dunnett’s multiple comparison tests as post hoc analysis. The statistical significance: p < 0.05.

HepG2 cells = test: as above; assay type: cell-based, human; details: concentrations up to 50 μM; viability assay and ToxiLight
Procedure: as §1

Question: Which “[%] of 10 μM GABA activity” value [1] does the source give for Cc1c(OCc2ccccc2)cccc1N1CCN(CCOC(=O)CCCN)CC1.Cl.Cl [Compound 16, 1-(2-((4-Ammoniobutanoyl)oxy)ethyl)-4-(3-(benzyloxy)-2-methylphenyl)piperazin-1-ium Dichloride] here?
Answer: Its value is 24.7% and 24.7 ± 1.5%.

Question: What about the “rat liver microsomes Clint” value [2] of the same compound?
Answer: Its value is <115.5 (μL/min)/mg.

Question: What about the “rat liver microsomes t0,5” value [2] of the same compound?
Answer: Its value is greater than 60 min.

Question: What about the viability at 24 h, 1 µM ([3]; HepG2, 1 µM) of the same compound?
Answer: The viability at 24 h, 1 µM was 102%.

Question: And the viability at 24 h, 10 µM ([3]; HepG2, 10 µM)?
Answer: The viability at 24 h, 10 µM was 104%.

Question: And the viability at 24 h, 50 µM ([3]; HepG2, 50 µM)?
Answer: Its viability at 24 h, 50 µM is 102%.

Question: What about the viability at 24 h, 100 µM ([3]; HepG2, 100 µM) of the same compound?
Answer: The viability at 24 h, 100 µM was 14%.

Question: And the “reduction of HepG2 viability” value (HepG2 cells)?
Answer: The value was “not significant reduction of viability”.
